# Measured values as given in US12459974B2, “Bicyclic peptide ligands specific for Nectin-4” (priority 2018, dated 2025).
# pKi: −log10 of the molar value. Where two headings read alike, the source gives them in different places. *1 amine or outer side, *2 acyl side, *3 side chain or, on linkers, in order; H or OH if unused. Where a SMILES comes first, the peptide text is derived from it. Bridges are numbered along the chain shown (N, C = ends). [ ]: non-standard residue; d: D form. TATA = O=C(CC[*:1])N1CN(C(=O)CC[*:2])CN(C(=O)CC[*:3])C1; hArg = N=C(N)NCCCC[C@H](N)C(=O)O; βAla = NCCC(=O)O; Sar = CNCC(=O)O
# Biological target: T1, human Nectin-4 (Homo sapiens, UniProt Q96NY8)
# T1 sequence (Q96NY8 32-510): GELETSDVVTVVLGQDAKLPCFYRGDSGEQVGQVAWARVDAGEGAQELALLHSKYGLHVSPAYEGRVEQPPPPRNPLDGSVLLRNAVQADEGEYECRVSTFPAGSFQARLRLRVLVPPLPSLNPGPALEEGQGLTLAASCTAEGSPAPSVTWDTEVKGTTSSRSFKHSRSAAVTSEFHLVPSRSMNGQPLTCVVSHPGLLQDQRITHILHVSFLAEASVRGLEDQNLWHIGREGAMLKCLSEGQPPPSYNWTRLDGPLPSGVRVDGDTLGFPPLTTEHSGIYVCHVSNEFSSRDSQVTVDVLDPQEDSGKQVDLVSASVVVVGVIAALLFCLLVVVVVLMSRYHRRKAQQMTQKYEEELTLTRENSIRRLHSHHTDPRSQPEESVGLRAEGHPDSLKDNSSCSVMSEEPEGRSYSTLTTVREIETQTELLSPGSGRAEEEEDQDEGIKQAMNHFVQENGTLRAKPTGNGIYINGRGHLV
# Assay: Nectin-4 competition binding assay (fluorescence polarisation)
# Description: Peptides were diluted to an appropriate concentration in assay buffer as described in the direct binding assay with a maximum of 5% DMSO, then serially diluted 1 in 2. Five μL of diluted peptide was added to the plate followed by 10 μL of human Nectin-4, then 10 μL fluorescent peptide added. Measurements were conducted as for the direct binding assay, however the gain was determined prior to the first measurement. Data analysis was in Systat Sigmaplot version 12.0 where the mP values were fit to a user defined cubic equation to generate a Ki value: • f=ymin+(ymax−ymin)/Lig*((Lig*((2*((Klig+Kcomp+Lig+Comp-Prot*c)^2-3*(Kcomp*(Lig-Prot*c)+Klig*(Comp-Prot*c)+Klig*Kcomp))^0.5*COS(ARCCOS((−2*(Klig+Kcomp+Lig+Comp-Prot*c)^3+9*(Klig+Kcomp+Lig+Comp-Prot*c)*(Kcomp*(Lig-Prot*c)+Klig*(Comp-Prot*c)+Klig*Kcomp)−27*(−1*Klig*Kcomp*Prot*c)/(2*((((Klig+Kcomp+Lig+Comp-Prot*c)^2−3*(Kcomp*(Lig-Prot*c)+Klig*(Comp-Prot*c)+Klig*Kcomp))^3)^0.5)))/3))−(Klig+Kcomp+Lig+Comp-Prot*c)))/((3*Klig)+((2*((Klig+Kcomp+Lig+Comp-Prot*c)^2−3*(Kcomp*(Lig-Prot*c)+Klig*(Comp-Prot*c)+Klig*Kcomp))^0.5*COS (ARCCOS ((−2*(Klig+Kcomp+Lig+Comp-Prot*c)^3+9*(Klig+Kcomp+Lig+Comp-Prot*c)*(Kcomp*(Lig-Prot*c)+Klig*(Comp-Prot*c)+Klig*Kcomp)-27*(−1*Klig*Kcomp*Prot*c))/(2*((((Klig+Kcomp+Lig+Comp-Prot*c)^2-3*(Kcomp*(Lig-Prot*c)+Klig*(Comp-Prot+c)+Klig*Kcomp))^3)^0.5))/3)−(Klig+Kcomp+Lig+Comp-Prot*c)))).
# “Lig”, “KLig” and “Prot” were all defined values relating to: fluorescent peptide concentration, the Kd of the fluorescent peptide and Nectin concentration respectively.
# [1] = competition with fluorescent peptide SEQ ID NO: 217, read-out: Ki
Structure (SMILES),pKi [1],pKi
"CC[C@H](C)[C@@H]1NC(=O)[C@@H]2CSCCC(=O)N3CN(CN(C3)C(=O)CCSC[C@H](NC(=O)[C@H](C)N)C(=O)N3CCC[C@H]3C(=O)N[C@@H](Cc3ccccc3)C(=O)NCC(=O)N2)C(=O)CCSC[C@@H](C(=O)N[C@@H](CCC(N)=O)C(=O)N[C@@H](CCSC)C(=O)N[C@@H](CCC(=O)O)C(N)=O)NC(=O)[C@H](Cc2c[nH]c3ccccc23)NC(=O)[C@H]([C@@H](C)CC)NC(=O)[C@@H]2CCCN2C(=O)[C@H](Cc2c[nH]c3ccccc23)NC(=O)[C@H](CO)NC(=O)[C@H](Cc2c[nH]c3ccccc23)NC(=O)[C@H](CO)NC(=O)[C@H](CCCCN)NC1=O [BCY3397, A-(SEQ ID NO: 55)-QME] (H-ACPFGCIKSWSWPIWCQME-NH2; linker 2-6-16 via TATA; N-terminus and C-terminus assumed)",7.48,–
"CC[C@H](C)[C@@H]1NC(=O)[C@@H]2CCCN2C(=O)[C@H](Cc2c[nH]c3ccccc23)NC(=O)[C@H](CO)NC(=O)[C@H](Cc2c[nH]c3ccccc23)NC(=O)[C@H](CC(=O)O)NC(=O)[C@H](CCC(=O)O)NC(=O)[C@H](CCC(N)=O)NC(=O)[C@@H]2CSCCC(=O)N3CN(CN(C3)C(=O)CCSC[C@H](NC(=O)[C@H](C)N)C(=O)N3CCC[C@H]3C(=O)N[C@@H](Cc3ccccc3)C(=O)NCC(=O)N2)C(=O)CCSC[C@@H](C(=O)N[C@@H](CC(C)C)C(=O)N[C@@H](CO)C(=O)N[C@@H](CCC(=O)O)C(N)=O)NC(=O)[C@H](Cc2c[nH]c3ccccc23)NC1=O [BCY3398, A-(SEQ ID NO: 56)-LSE] (H-ACPFGCQEDWSWPIWCLSE-NH2; linker 2-6-16 via TATA; N-terminus and C-terminus assumed)",6.79,–
"CC[C@H](C)[C@@H]1NC(=O)[C@@H]2CCCN2C(=O)[C@H](Cc2c[nH]c3ccccc23)NC(=O)[C@H](CO)NC(=O)[C@H](Cc2c[nH]c3ccccc23)NC(=O)[C@H](CC(=O)O)NC(=O)[C@H](CO)NC(=O)[C@H](CCSC)NC(=O)[C@@H]2CSCCC(=O)N3CN(CN(C3)C(=O)CCSC[C@H](NC(=O)[C@H](C)N)C(=O)N3CCC[C@H]3C(=O)N[C@@H](Cc3ccccc3)C(=O)NCC(=O)N2)C(=O)CCSC[C@@H](C(=O)N[C@@H](CO)C(=O)N[C@H](C(=O)N[C@@H](CC(=O)O)C(N)=O)[C@@H](C)O)NC(=O)[C@H](Cc2c[nH]c3ccccc23)NC1=O [BCY3399, A-(SEQ ID NO: 57)-STD] (H-ACPFGCMSDWSWPIWCSTD-NH2; linker 2-6-16 via TATA; N-terminus and C-terminus assumed)",6.39,–
"CC[C@H](C)[C@@H]1NC(=O)[C@H](CCCNC(=N)N)NC(=O)[C@@H]2CCCN2C(=O)[C@@H]2CSCCC(=O)N3CN(CN(C3)C(=O)CCSC[C@@H](C(=O)N3CCC[C@H]3C(=O)N[C@@H](CCC(N)=O)C(=O)N[C@@H](C)C(N)=O)NC1=O)C(=O)CCSC[C@H](NC(=O)[C@H](C)N)C(=O)N[C@@H](Cc1c[nH]c3ccccc13)C(=O)N1CCC[C@H]1C(=O)N[C@@H](CC(C)C)C(=O)N[C@@H](CC(=O)O)C(=O)N[C@@H](CC(=O)O)C(=O)N[C@@H](Cc1ccc(O)cc1)C(=O)N[C@@H](Cc1c[nH]c3ccccc13)C(=O)N2 [BCY3401, A-(SEQ ID NO: 58)-PQA] (H-ACWPLDDYWCPRICPQA-NH2; linker 2-10-14 via TATA; N-terminus and C-terminus assumed)",6.81,–
"CC[C@H](C)[C@@H]1NC(=O)[C@@H]2CCCN2C(=O)[C@H](Cc2c[nH]c3ccccc23)NC(=O)[C@H](CO)NC(=O)[C@H](Cc2c[nH]c3ccccc23)NC(=O)[C@H](CC(N)=O)NC(=O)[C@H](CCCCN)NC(=O)[C@H](CCSC)NC(=O)[C@@H]2CSCCC(=O)N3CN(CN(C3)C(=O)CCSC[C@H](NC(=O)[C@H](C)N)C(=O)N3CCC[C@H]3C(=O)N[C@@H](Cc3ccccc3)C(=O)NCC(=O)N2)C(=O)CCSC[C@@H](C(=O)N[C@H](C(=O)N[C@@H](CC(N)=O)C(=O)N[C@@H](C)C(N)=O)[C@@H](C)O)NC(=O)[C@H](Cc2c[nH]c3ccccc23)NC1=O [BCY7348, A-(SEQ ID NO: 1)-TNA]",7.69,–
"CC[C@H](C)[C@@H]1NC(=O)[C@@H]2CCCN2C(=O)[C@H](Cc2c[nH]c3ccccc23)NC(=O)[C@H](CO)NC(=O)[C@H](Cc2c[nH]c3ccccc23)NC(=O)[C@H](CC(N)=O)NC(=O)[C@H](CCCCN)NC(=O)[C@H](CCSC)NC(=O)[C@@H]2CSCCC(=O)N3CN(CN(C3)C(=O)CCSC[C@H](NC(=O)[C@H](C)N)C(=O)N3CCC[C@H]3C(=O)N[C@@H](Cc3ccccc3)C(=O)N[C@@H](C)C(=O)N2)C(=O)CCSC[C@@H](C(=O)N[C@H](C(=O)N[C@@H](CC(N)=O)C(=O)N[C@@H](CCCCN)C(N)=O)[C@@H](C)O)NC(=O)[C@H](Cc2c[nH]c3ccccc23)NC1=O [BCY7354, A-(SEQ ID NO: 6)-TNK]",–,6.05
"CC[C@H](C)[C@@H]1NC(=O)[C@@H]2CCCN2C(=O)[C@H](Cc2c[nH]c3ccccc23)NC(=O)[C@H](C)NC(=O)[C@H](Cc2c[nH]c3ccccc23)NC(=O)[C@H](CC(N)=O)NC(=O)[C@H](CCCCN)NC(=O)[C@H](CCSC)NC(=O)[C@@H]2CSCCC(=O)N3CN(CN(C3)C(=O)CCSC[C@H](NC(=O)[C@H](C)N)C(=O)N3CCC[C@H]3C(=O)N[C@@H](Cc3ccccc3)C(=O)NCC(=O)N2)C(=O)CCSC[C@@H](C(=O)N[C@H](C(=O)N[C@@H](CC(N)=O)C(=O)N[C@@H](CCCCN)C(N)=O)[C@@H](C)O)NC(=O)[C@H](Cc2c[nH]c3ccccc23)NC1=O [BCY7424, A-(SEQ ID NO: 30)-TNK] (H-ACPFGCMKNWAWPIWCTNK-NH2; linker 2-6-16 via TATA; N-terminus and C-terminus assumed)",6.25,–
"CC[C@H](C)[C@@H]1NC(=O)[C@@H]2CCCN2C(=O)[C@H](CC(=O)O)NC(=O)[C@H](CO)NC(=O)[C@H](Cc2c[nH]c3ccccc23)NC(=O)[C@H](CC(N)=O)NC(=O)[C@H](CCCCN)NC(=O)[C@H](CCSC)NC(=O)[C@@H]2CSCCC(=O)N3CN(CN(C3)C(=O)CCSC[C@H](NC(C)=O)C(=O)N3CCC[C@H]3C(=O)N[C@@H](Cc3ccccc3)C(=O)NCC(=O)N2)C(=O)CCSC[C@@H](C(N)=O)NC(=O)[C@H](Cc2c[nH]c3ccccc23)NC1=O [BCY7540, Ac-(SEQ ID NO: 8)] (Ac-CPFGCMKNWSDPIWC-NH2; linker 1-5-15 via TATA; C-terminus assumed)",6.45,–
"CC[C@H](C)[C@@H]1NC(=O)[C@@H]2CCCN2C(=O)[C@H](Cc2c[nH]c3ccccc23)NC(=O)[C@H](CO)NC(=O)[C@H](Cc2c[nH]c3ccccc23)NC(=O)[C@H](CC(N)=O)NC(=O)[C@H](CCCCNC(=N)N)NC(=O)[C@H](CCSC)NC(=O)[C@@H]2CSCCC(=O)N3CN(CN(C3)C(=O)CCSC[C@H](NC(=O)CN(C)C(=O)CN(C)C(=O)CN(C)C(=O)CN(C)C(=O)CN(C)C(=O)CCNC(C)=O)C(=O)N3CCC[C@H]3C(=O)N[C@@H](Cc3ccccc3)C(=O)N[C@H](CC(=O)O)C(=O)N2)C(=O)CCSC[C@@H](C(N)=O)NC(=O)[C@H](Cc2c[nH]c3ccccc23)NC1=O [BCY7558, Ac-[B-Ala][Sar5]-(SEQ ID NO: 76)] (Ac-[βAla][Sar][Sar][Sar][Sar][Sar]CPF[dD]CM[hArg]NWSWPIWC-NH2; linker 7-11-21 via TATA)",7.66,–
"CC[C@H](C)[C@@H]1NC(=O)[C@@H]2CCCN2C(=O)[C@H](Cc2ccccc2)NC(=O)[C@H](CO)NC(=O)[C@H](Cc2c[nH]c3ccccc23)NC(=O)[C@H](CC(N)=O)NC(=O)[C@H](CCCCN)NC(=O)[C@H](CCSC)NC(=O)[C@@H]2CSCCC(=O)N3CN(CN(C3)C(=O)CCSC[C@H](NC(C)=O)C(=O)N3CCC[C@H]3C(=O)N[C@@H](Cc3ccccc3)C(=O)NCC(=O)N2)C(=O)CCSC[C@@H](C(N)=O)NC(=O)[C@H](Cc2c[nH]c3ccccc23)NC1=O [BCY7589, Ac-(SEQ ID NO: 84)] (Ac-CPFGCMKNWSFPIWC-NH2; linker 1-5-15 via TATA; C-terminus assumed)",7.46,–
"CC[C@H](C)[C@@H]1NC(=O)[C@@H]2CCCN2C(=O)[C@H](Cc2ccc(O)cc2)NC(=O)[C@H](CO)NC(=O)[C@H](Cc2c[nH]c3ccccc23)NC(=O)[C@H](CC(N)=O)NC(=O)[C@H](CCCCN)NC(=O)[C@H](CCSC)NC(=O)[C@@H]2CSCCC(=O)N3CN(CN(C3)C(=O)CCSC[C@H](NC(C)=O)C(=O)N3CCC[C@H]3C(=O)N[C@@H](Cc3ccccc3)C(=O)NCC(=O)N2)C(=O)CCSC[C@@H](C(N)=O)NC(=O)[C@H](Cc2c[nH]c3ccccc23)NC1=O [BCY7590, Ac-(SEQ ID NO: 85)] (Ac-CPFGCMKNWSYPIWC-NH2; linker 1-5-15 via TATA; C-terminus assumed)",7.41,–
